Source: patent publication US20230398130A1, “METHODS AND COMPOSITIONS FOR DIFFERENTIATING STEM CELLS” (Massachusetts Institute of Technology, priority 2020, published 2023)

Experiments:
ISC-enriched organoids [1] = experiment: Primary screen, 384-well 2.5-D organoid differentiation (ENR+CD, 6 days): basal lysozyme secretion (LYZ.NS); format: cell-based, murine; conditions: for Dose.FC.LYZ.NS: FC vs plate median; for Dose.FC.LYZ.NS (log 2 fold change): vs plate median; for SSMD.LYZ.NS: strictly standardized mean difference
Source text: (§1) High-throughput screening.

ISC-enriched organoids [2] = experiment: Primary screen, 384-well 2.5-D organoid differentiation (ENR+CD, 6 days): carbachol-induced lysozyme secretion (LYZ.S); format: cell-based, murine; conditions: for Dose.FC.LYZ.S: FC vs plate median; for Dose.FC.LYZ.S (log 2 fold change): vs plate median; for Z.LYZ.S: standard z score; for SSMD.LYZ.S: strictly standardized mean difference
Source text: as §1

ISC-enriched organoids [3] = experiment: Primary screen, 384-well 2.5-D organoid differentiation (ENR+CD, 6 days, Target Selective Inhibitor Library, vs whole-plate median): ATP (CellTiter-Glo 3D, CTG); conditions: for Dose.FC.CTG: FC vs plate median; for Dose.FC.CTG (log 2 fold change): vs plate median; for SSMD.CTG: strictly standardized mean difference
[4] = Dose 0.08 uM, standard z score of FC
[5] = dose 0.08 uM (1st of 4 lines per treatment; dose not printed in this part)
[6] = dose 0.40 uM (2nd of 4 lines per treatment; dose not printed in this part)
[7] = dose 2.00 uM (3rd of 4 lines per treatment; dose not printed in this part)
[8] = dose 10.00 uM (4th of 4 lines per treatment; dose not printed in this part)
[9] = primary screen, dose 0.08 uM, ENR+CD 6 days
[10] = primary screen, dose 0.08 uM, standard z score of FC
[11] = primary screen, dose 0.40 uM, ENR+CD 6 days
[12] = primary screen, dose 0.40 uM, standard z score of FC
[13] = primary screen, dose 2.00 uM, ENR+CD 6 days
[14] = primary screen, dose 2.00 uM, standard z score of FC
[15] = primary screen, dose 10.00 uM, ENR+CD 6 days
[16] = primary screen, dose 10.00 uM, standard z score of FC
[17] = Dose 0.40 uM, standard z score of FC
[18] = Dose 2.00 uM, standard z score of FC
[19] = Dose 10.00 uM, standard z score of FC
[20] = Dose 0.08 uM, primary screen, standard z score
[21] = Dose 0.40 uM, primary screen, standard z score
[22] = Dose 2.00 uM, primary screen, standard z score
[23] = Dose 10.00 uM, primary screen, standard z score
[24] = primary screen, 1st of the 4 dose lines of the treatment (dose not given)
[25] = primary screen, 2nd of the 4 dose lines of the treatment (dose not given)
[26] = primary screen, 3rd of the 4 dose lines of the treatment (dose not given)
[27] = primary screen, 4th of the 4 dose lines of the treatment (dose not given)

Compound: N#CSc1cc(SC#N)c(N)nc1N [PR-619]
- Dose.FC.LYZ.NS (ISC-enriched organoids [1]; Dose 0.08 uM, primary screen): 0.100 log 2 fold change
- Z.LYZ.NS (ISC-enriched organoids [1]; [4]): 0.872
- Z.LYZ.NS (standard z score) (ISC-enriched organoids [1]; Dose 0.40 uM, primary screen): 0.448
- Dose.FC.LYZ.NS (log 2 fold change) (ISC-enriched organoids [1]; Dose 0.40 uM, primary screen): 0.051
- Z.LYZ.NS (standard z score) (ISC-enriched organoids [1]; Dose 2.00 uM, primary screen): 0.495
- Dose.FC.LYZ.NS (log 2 fold change) (ISC-enriched organoids [1]; Dose 2.00 uM, primary screen): 0.057
- Z.LYZ.NS (standard z score) (ISC-enriched organoids [1]; Dose 10.00 uM, primary screen): −1.687
- Dose.FC.LYZ.NS (log 2 fold change) (ISC-enriched organoids [1]; Dose 10.00 uM, primary screen): −0.194
- Dose.FC.LYZ.S (ISC-enriched organoids [2]; Dose 0.08 uM, primary screen): 0.122 log 2 fold change
- Dose.FC.LYZ.S (log 2 fold change) (ISC-enriched organoids [2]; Dose 0.40 uM, primary screen): 0.047
- Dose.FC.LYZ.S (log 2 fold change) (ISC-enriched organoids [2]; Dose 2.00 uM, primary screen): 0.081
- Dose.FC.LYZ.S (log 2 fold change) (ISC-enriched organoids [2]; Dose 10.00 uM, primary screen): −0.193
- Dose.FC.CTG (ISC-enriched organoids [3]; Dose 0.08 uM, primary screen): 0.054 log 2 fold change
- Z.CTG (ISC-enriched organoids [3]; [4]): 0.130
- Z.CTG (standard z score) (ISC-enriched organoids [3]; Dose 0.40 uM, primary screen): 0.266
- Dose.FC.CTG (log 2 fold change) (ISC-enriched organoids [3]; Dose 0.40 uM, primary screen): 0.111
- Z.CTG (standard z score) (ISC-enriched organoids [3]; Dose 2.00 uM, primary screen): 0.053
- Dose.FC.CTG (log 2 fold change) (ISC-enriched organoids [3]; Dose 2.00 uM, primary screen): 0.022
- Z.CTG (standard z score) (ISC-enriched organoids [3]; Dose 10.00 uM, primary screen): −0.764
- Dose.FC.CTG (log 2 fold change) (ISC-enriched organoids [3]; Dose 10.00 uM, primary screen): −0.320

Compound: O=C(O)C(Cc1ccccc1[N+](=O)[O-])=NNc1nc(-c2ccc(Cl)c(Cl)c2)cs1 (mixture of isomers) [4EGI-1]
- SSMD.LYZ.NS_Rep (strictly standardized mean difference) (ISC-enriched organoids [1]; [5]): 0.378
- SSMD.LYZ.NS_Rep (strictly standardized mean difference) (ISC-enriched organoids [1]; [6]): 0.264
- SSMD.LYZ.NS_Rep (strictly standardized mean difference) (ISC-enriched organoids [1]; [7]): 0.252
- SSMD.LYZ.NS_Rep (strictly standardized mean difference) (ISC-enriched organoids [1]; [8]): −0.257
- Dose.FC.LYZ.NS (ISC-enriched organoids [1]; [9]): 0.110 log 2 fold change
- Z.LYZ.NS (ISC-enriched organoids [1]; [10]): 0.956
- Dose.FC.LYZ.NS (ISC-enriched organoids [1]; [11]): 0.036 log 2 fold change
- Z.LYZ.NS (ISC-enriched organoids [1]; [12]): 0.315
- Dose.FC.LYZ.NS (ISC-enriched organoids [1]; [13]): 0.069 log 2 fold change
- Z.LYZ.NS (ISC-enriched organoids [1]; [14]): 0.597
- Dose.FC.LYZ.NS (ISC-enriched organoids [1]; [15]): −0.034 log 2 fold change
- Z.LYZ.NS (ISC-enriched organoids [1]; [16]): −0.300
- SSMD.LYZ.S_Rep (strictly standardized mean difference) (ISC-enriched organoids [2]; [5]): −0.264
- Z.LYZ.S (standard z score) (ISC-enriched organoids [2]; [5]): −0.236
- SSMD.LYZ.S_Rep (strictly standardized mean difference) (ISC-enriched organoids [2]; [6]): 0.326
- Z.LYZ.S (standard z score) (ISC-enriched organoids [2]; [6]): 0.352
- SSMD.LYZ.S_Rep (strictly standardized mean difference) (ISC-enriched organoids [2]; [7]): −0.328
- Z.LYZ.S (standard z score) (ISC-enriched organoids [2]; [7]): −0.380
- SSMD.LYZ.S_Rep (strictly standardized mean difference) (ISC-enriched organoids [2]; [8]): 0.189
- Z.LYZ.S (standard z score) (ISC-enriched organoids [2]; [8]): 0.366
- Dose.FC.LYZ.S (ISC-enriched organoids [2]; [9]): −0.037 log 2 fold change
- Dose.FC.LYZ.S (ISC-enriched organoids [2]; [11]): 0.054 log 2 fold change
- Dose.FC.LYZ.S (ISC-enriched organoids [2]; [13]): −0.059 log 2 fold change
- Dose.FC.LYZ.S (ISC-enriched organoids [2]; [15]): 0.057 log 2 fold change
- SSMD.CTG_Rep (strictly standardized mean difference) (ISC-enriched organoids [3]; [5]): −0.352
- SSMD.CTG_Rep (strictly standardized mean difference) (ISC-enriched organoids [3]; [6]): −0.158
- SSMD.CTG_Rep (strictly standardized mean difference) (ISC-enriched organoids [3]; [7]): 0.407
- SSMD.CTG_Rep (strictly standardized mean difference) (ISC-enriched organoids [3]; [8]): −0.283
- Dose.FC.CTG (ISC-enriched organoids [3]; [9]): −0.160 log 2 fold change
- Z.CTG (ISC-enriched organoids [3]; [10]): −0.383
- Dose.FC.CTG (ISC-enriched organoids [3]; [11]): −0.131 log 2 fold change
- Z.CTG (ISC-enriched organoids [3]; [12]): −0.314
- Dose.FC.CTG (ISC-enriched organoids [3]; [13]): 0.127 log 2 fold change
- Z.CTG (ISC-enriched organoids [3]; [14]): 0.304
- Dose.FC.CTG (ISC-enriched organoids [3]; [15]): −0.109 log 2 fold change
- Z.CTG (ISC-enriched organoids [3]; [16]): −0.261

Compound: C[C@H](N[C@@H](CCc1ccccc1)C(=O)O)C(=O)N1CCC[C@H]1C(=O)O.O.O [Enalaprilat Dihydrate]
- Dose.FC.LYZ.NS (ISC-enriched organoids [1]; Dose 0.08 uM, ENR+CD, 6 days): 0.003 log 2 fold change
- Z.LYZ.NS (ISC-enriched organoids [1]; [4]): 0.027
- Dose.FC.LYZ.NS (ISC-enriched organoids [1]; Dose 0.40 uM, ENR+CD, 6 days): −0.003 log 2 fold change
- Z.LYZ.NS (ISC-enriched organoids [1]; [17]): −0.030
- Dose.FC.LYZ.NS (ISC-enriched organoids [1]; Dose 2.00 uM, ENR+CD, 6 days): −0.022 log 2 fold change
- Z.LYZ.NS (ISC-enriched organoids [1]; [18]): −0.195
- Dose.FC.LYZ.NS (ISC-enriched organoids [1]; Dose 10.00 uM, ENR+CD, 6 days): −0.157 log 2 fold change
- Z.LYZ.NS (ISC-enriched organoids [1]; [19]): −1.364
- Dose.FC.LYZ.S (ISC-enriched organoids [2]; Dose 0.08 uM, ENR+CD, 6 days): −0.001 log 2 fold change
- Dose.FC.LYZ.S (ISC-enriched organoids [2]; Dose 0.40 uM, ENR+CD, 6 days): 0.111 log 2 fold change
- Dose.FC.LYZ.S (ISC-enriched organoids [2]; Dose 2.00 uM, ENR+CD, 6 days): −0.095 log 2 fold change
- Dose.FC.LYZ.S (ISC-enriched organoids [2]; Dose 10.00 uM, ENR+CD, 6 days): −0.281 log 2 fold change
- Dose.FC.CTG (ISC-enriched organoids [3]; Dose 0.08 uM, ENR+CD, 6 days): −0.190 log 2 fold change
- Z.CTG (ISC-enriched organoids [3]; [4]): −0.454
- Dose.FC.CTG (ISC-enriched organoids [3]; Dose 0.40 uM, ENR+CD, 6 days): −0.124 log 2 fold change
- Z.CTG (ISC-enriched organoids [3]; [17]): −0.296
- Dose.FC.CTG (ISC-enriched organoids [3]; Dose 2.00 uM, ENR+CD, 6 days): −0.331 log 2 fold change
- Z.CTG (ISC-enriched organoids [3]; [18]): −0.791
- Dose.FC.CTG (ISC-enriched organoids [3]; Dose 10.00 uM, ENR+CD, 6 days): −0.979 log 2 fold change
- Z.CTG (ISC-enriched organoids [3]; [19]): −2.338

Compound: Maraviroc
- Dose.FC.LYZ.NS (ISC-enriched organoids [1]; Dose 0.08 uM, primary screen): 0.047 log 2 fold change
- Z.LYZ.NS (ISC-enriched organoids [1]; [20]): 0.411
- Dose.FC.LYZ.NS (ISC-enriched organoids [1]; Dose 0.40 uM, primary screen): 0.041 log 2 fold change
- Z.LYZ.NS (ISC-enriched organoids [1]; [21]): 0.358
- Dose.FC.LYZ.NS (ISC-enriched organoids [1]; Dose 2.00 uM, primary screen): 0.031 log 2 fold change
- Z.LYZ.NS (ISC-enriched organoids [1]; [22]): 0.269
- Dose.FC.LYZ.NS (ISC-enriched organoids [1]; Dose 10.00 uM, primary screen): 0.087 log 2 fold change
- Z.LYZ.NS (ISC-enriched organoids [1]; [23]): 0.759
- SSMD.LYZ.NS (ISC-enriched organoids [1]; [24]): 0.274
- SSMD.LYZ.NS (ISC-enriched organoids [1]; [25]): 0.365
- SSMD.LYZ.NS (ISC-enriched organoids [1]; [26]): 0.225
- SSMD.LYZ.NS (ISC-enriched organoids [1]; [27]): 0.547
- Dose.FC.LYZ.S (ISC-enriched organoids [2]; Dose 0.08 uM, primary screen): 0.054 log 2 fold change
- Dose.FC.LYZ.S (ISC-enriched organoids [2]; Dose 0.40 uM, primary screen): 0.195 log 2 fold change
- Dose.FC.LYZ.S (ISC-enriched organoids [2]; Dose 2.00 uM, primary screen): 0.005 log 2 fold change
- Dose.FC.LYZ.S (ISC-enriched organoids [2]; Dose 10.00 uM, primary screen): 0.077 log 2 fold change
- Z.LYZ.S (ISC-enriched organoids [2]; [24]): 0.350
- Z.LYZ.S (ISC-enriched organoids [2]; [25]): 1.262
- Z.LYZ.S (ISC-enriched organoids [2]; [26]): 0.034
- Z.LYZ.S (ISC-enriched organoids [2]; [27]): 0.495
- SSMD.LYZ.S (ISC-enriched organoids [2]; [24]): 0.262
- SSMD.LYZ.S (ISC-enriched organoids [2]; [25]): 0.754
- SSMD.LYZ.S (ISC-enriched organoids [2]; [26]): 0.028
- SSMD.LYZ.S (ISC-enriched organoids [2]; [27]): 0.400
- Dose.FC.CTG (ISC-enriched organoids [3]; Dose 0.08 uM, primary screen): −0.084 log 2 fold change
- Z.CTG (ISC-enriched organoids [3]; [20]): −0.201
- Dose.FC.CTG (ISC-enriched organoids [3]; Dose 0.40 uM, primary screen): 0.079 log 2 fold change
- Z.CTG (ISC-enriched organoids [3]; [21]): 0.188
- Dose.FC.CTG (ISC-enriched organoids [3]; Dose 2.00 uM, primary screen): −0.009 log 2 fold change
- Z.CTG (ISC-enriched organoids [3]; [22]): −0.022
- Dose.FC.CTG (ISC-enriched organoids [3]; Dose 10.00 uM, primary screen): 0.139 log 2 fold change
- Z.CTG (ISC-enriched organoids [3]; [23]): 0.331
- SSMD.CTG (ISC-enriched organoids [3]; [24]): −0.294
- SSMD.CTG (ISC-enriched organoids [3]; [25]): 0.187
- SSMD.CTG (ISC-enriched organoids [3]; [26]): −0.030
- SSMD.CTG (ISC-enriched organoids [3]; [27]): 0.270
